From patent publication US20060269482A1 (priority 2005, published 2006)
Read-outs that look alike come from different tables or passages of the source.

What was measured:
HCT116 cells = experiment: 5-day proliferation assay, cell growth inhibition; type: cell-based; conditions: Homo sapiens, HCT-116, 120 h; HCT116, 5-day proliferation assay
MTLn3 cells = experiment: cell growth inhibition in rat tumor cell line; type: cell-based
[1] = Plasma and tumor exposures after a single oral dose; type: in vivo, rat
Description: Female Fischer rats obtained from Charles River Laboratories were used when they were ˜13-15 weeks old and weighed ˜150 grams. All animals were examined prior to the initiation of studies to ensure that they were healthy and acclimated to the laboratory environment. Autoclaved water and irradiated food were provided ad libitum, and the animals were maintained in a 12 hour light and dark cycle.
The test compound COMPOUND A, [4-amino-2-(1-methanesulfonylpiperidin-4-ylamino) pyrimidin-5-yl]-(2,3-difluoro-6-methoxyphenyl)methanone, was synthesized by Discovery Chemistry, Hoffmann-La Roche Inc. COMPOUND A was formulated as a suspension in 1% Klucel LF with 0.1% Tween 80 for oral injection. Compound was stored at 4° C. and vortexed immediately prior to administration.
The dose selected was 80 mg/kg, determined to be an efficacious dose in this animal model. Tumor growth inhibition in the MTLn3 xenograft model after 2 to 3 weeks of oral dosing at 80 mg/kg once weekly averaged 90% with 2/10 complete regressions. COMPOUND A was dosed on day 10 post implantation of cells, at which time the tumors were 100-200 mm^3 in size. In this pharmacokinetic/pharmacodynamic experiment, plasma and tumors were collected at 1, 2, 6, 24 and 72 hours post dosing of a single oral dose of COMPOUND A. Tumors were removed and immediately snap frozen in liquid nitrogen and stored at −80° C. until drug concentration analysis. Untreated and vehicle treated control groups were included in the analysis. Concentrations of COMPOUND A in plasma and tumors were determined in the same three animals per time point. Whole blood was also collected for analysis of Rb phosphorylation. Peripheral blood mononuclear cells (PBMCs) were isolated, stimulated ex vivo with mitogen and analyzed by Western blot as described below.
In a second pharmacodynamic study, plasma concentrations of COMPOUND A were similarly analyzed as described above, and Rb phosphorylation in both PBMCs and tumor xenografts treated with a single oral dose of COMPOUND A was examined.
After a single oral dose of 80 mg/kg, plasma and tumor tissues show a similar concentration time profile of COMPOUND A. Maximum concentrations in both plasma and tumor tissue were observed 1 hr post dose. The concentrations in the tumor samples taken from the same animals were approximately 50% of the plasma concentration and at 24 hrs tumor drug levels (164±28 ng/g) approximated plasma exposures at 24 hours (250±74 ng/ml) (FIG. 7). Drug levels in plasma and tumor tissue were measurable up to 24 hrs after dosing in all the animals in PD 664 (3 rats per time point). […] Overall the plasma data seem fairly predictive for tumor concentrations particularly since the extraction of drug from the tumor samples might be less than complete. No drug was detectable in the vehicle group.
Similarly in PD 675, after a single 80 mg/kg oral dose of COMPOUND A, drug was measurable in all the animals up to 6 hrs (339±88 ng/ml) and in ⅔ animals 24 hr and 48 hr after dosing. Mean plasma concentrations were steady from 1-24 hr. No drug was detectable in the vehicle group.

[2] = system: Rb phosphorylation in human PBMCs; experiment: Rb phosphorylation in human PBMCs treated ex vivo; type: cell-based; conditions: PMA stimulated, 0.2 to 2.0 μM, Western blot
Description: Approximately 10 mls of blood was collected from five healthy human volunteers into sodium heparin treated Vacutainer blood collection tubes by Employee Health Services. PBMCs were separated using the Lymphocyte Separation Medium (LSM) and protocol supplied by ICN Biomedicals Inc. (Costa Mesa, Calif.). Briefly whole blood was diluted 1:1 with cold HBSS (Hanks Balanced Salt Solution), layered onto the LSM and centrifuged. The band of mononuclear cells above the LSM was collected, transferred to a new tube and washed once with cold HBSS. Cells were resuspended in RPMI 1640, 10% HI-FBS, 2 mM L-glutamine and 0.01 mg/ml Gentamicin Reagent Solution (GIBCO/Invitrogen). […]
PBMCs were collected by transferring the cells, including attached cells and those in suspension, into 50 ml tubes. […] Samples were sonicated on ice for 30 seconds, clarified by centrifugation at 16,000×g for 10 minutes at 4° C. and protein concentrations determined using Non-Interfering Protein Assay Kit (Geno Technology Incorporated, Maplewood, Mo.). […] For Western blotting, total Rb was detected using antibody from Pharmingen (BD Bioscience, San Diego, Calif.) at a dilution of 1:2000. Lysates were analysed by Western blotting for Rb phosphorylation using polyclonal antibodies against phosphorylated serine 795, serine 780, threonine 821 and serine 807/811 in human Rb (FIG. 8). […]

[3] = single oral dose 80 mg/kg, rat, PD 664

IC50 (HCT116 cells): 100 nM
IC90 (HCT116 cells): 200 nM
IC50 (MTLn3 cells): 170 nM
IC90 (MTLn3 cells): 240 nM
concentration at 6 h ([1]; female, Fischer, rat, plasma, single 80 mg/kg oral dose, PD 675, 6 hrs): 339 ± 88 ng/mL
concentration at 24 h ([1]; female, Fischer, rat, plasma, single oral dose 80 mg/kg, 24 hours, PD 664, read-out: Plasma exposure at 24 hours): 250 ± 74 ng/mL
concentration at 72 h ([1]; female, Fischer, rat, plasma, single oral dose 80 mg/kg, PD 664, one out of three animals measurable): ≥ 12.5 ng/mL
Kp ([1]; female, Fischer, rat, tumor / plasma, single oral dose 80 mg/kg, same animals, PD 664, read-out: Tumor concentration as percent of plasma concentration): ~0.5
concentration at 24 h ([1]; female, Fischer, rat, tumor, single oral dose 80 mg/kg, 24 hrs, PD 664, read-out: Tumor drug level at 24 hrs): 164 ± 28 ng/g
Time up to which drug levels in plasma and tumor tissue were measurable in all animals ([1]; single oral dose 80 mg/kg, PD 664, 3 rats per time point): up to 24 hrs
Time of maximum concentration in plasma [1, 3]: 1 h
Time of maximum concentration in tumor tissue [1, 3]: 1 h
Compound: COc1ccc(F)c(F)c1C(=O)c1cnc(NC2CCN(S(C)(=O)=O)CC2)nc1N [COMPOUND A, [4-amino-2-(1-methanesulfonylpiperidin-4-ylamino)pyrimidin-5-yl]-(2,3-difluoro-6-methoxyphenyl)methanone]
Rb phosphorylation at the serine 807/811 site ([2]; human PBMCs of two donors): complete inhibition of phosphorylation
Rb phosphorylation at the threonine 821 site ([2]; human PBMCs, 24 hours incubation): not inhibited at any concentration
